In patent publication US20080194556A1, “Quinazolines and Their Use as Aurora Kinase Inhibitors” (ASTRAZENECA AB, priority 2005, published 2008):

How the values were obtained:
[1] = test system: SW620 human colon tumour cells; experiment: In vitro cell phenotype and substrate phosphorylation assay (phosphohistone H3 levels); assay type: cell-based; conditions: SW-620, 24 hours of treatment, read-out: IC50 (inhibition of phosphohistone H3 levels)
Protocol: (c) In Vitro Cell Phenotype and Substrate Phosphorylation Assay
This assay is used to determine the cellular effects of compounds on SW620 human colon tumour cells in vitro. Compounds typically cause inhibition of levels of phosphohistone H3 and an increase in the nuclear area of the cells.
10^4 SW620 cells per well were plated in 100 μl DMEM media (containing 10% FCS and 1% glutamine) (DMEM is Dulbecco's Modified Eagle's Medium (Sigma D6546)) in costar 96 well plates and left overnight at 37° C. and 5% CO2 to adhere. The cells were then dosed with compound diluted in media (50 μl is added to each well to give 0.00015μ-1 μM concentrations of compound) and after 24 hours of treatment with compound, the cells were fixed.
The cells were first examined using a light microscope and any cellular changes in morphology were noted. 100 μl of 3.7% formaldehyde was then added to each well, and the plate was left for at least 30 minutes at room temperature. Decanting and tapping the plate on a paper towel removed the fixative and plates were then washed once in PBS (Dulbecco's Phosphate Buffered Saline (Sigma D8537)) using an automated plate washer. 100 μl PBS and 0.5% triton X-100 was added and the plates were put on a shaker for 5 minutes. The plates were washed in 100 μl PBS and solution tipped off. 50 μl of primary antibody, 1:500 rabbit anti-phosphohistone H3 in PBS 1% BSA (bovine serum albumin) and 0.5% tween, was added. Anti-phosphohistone H3 rabbit polyclonal 06-750 was purchased from Upstate Biotechnology. The plates were left 1 hour at room temperature on a shaker.
The next day, the antibody was tipped off and the plates were washed twice with PBS. In an unlit area, 50 μl of secondary antibody, 1:10,000 Hoechst and 1:200 Alexa Fluor 488 goat anti rabbit IgGA (cat no. 11008 molecular probes) in PBS 1% BSA, 0.5% tween was added. The plates were wrapped in tin foil and shaken for 1 hour at room temperature. The antibody was tipped off and plates were washed twice with PBS. […] 100 μl PBS was added to each well and the plates were sealed ready to analyse. […]

aurora B-INCENP enzyme = molecular target: T1, aurora B-INCENP enzyme (Homo sapiens, UniProt Q96GD4); experiment: In vitro aurora B kinase inhibition test; assay type: biochemical; conditions: 33P incorporation into peptide substrate, 60 minutes at room temperature, read-out: IC50 (50% inhibition of enzyme activity), aurora B kinase
T1 construct: 6-histidine; purchased Upstate
T1 sequence (Q96GD4 whole entry): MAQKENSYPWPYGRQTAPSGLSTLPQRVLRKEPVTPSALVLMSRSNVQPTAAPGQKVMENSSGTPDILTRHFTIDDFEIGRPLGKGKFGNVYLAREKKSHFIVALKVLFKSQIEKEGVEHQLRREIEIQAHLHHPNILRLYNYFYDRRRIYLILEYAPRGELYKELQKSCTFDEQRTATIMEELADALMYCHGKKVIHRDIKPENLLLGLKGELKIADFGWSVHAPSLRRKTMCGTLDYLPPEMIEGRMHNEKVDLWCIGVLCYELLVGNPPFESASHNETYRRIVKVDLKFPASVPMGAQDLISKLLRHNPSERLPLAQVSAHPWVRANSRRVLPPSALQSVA
T1 sequence (Q9NQS7 826-918 partner): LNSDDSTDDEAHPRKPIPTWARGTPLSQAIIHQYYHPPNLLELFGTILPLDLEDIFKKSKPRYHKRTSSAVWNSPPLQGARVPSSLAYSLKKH
Description: (b) In Vitro Aurora B Kinase Inhibition Test
This assay determines the ability of a test compound to inhibit serine-threonine kinase activity. DNA encoding aurora B may be obtained by total gene synthesis or by cloning. This DNA may then be expressed in a suitable expression system to obtain polypeptide with serine-threonine kinase activity. In the case of aurora B, the coding sequence was isolated from cDNA by polymerase chain reaction (PCR) and cloned into the pFastBac system in a manner similar to that described above for aurora A (i.e. to direct expression of a 6-histidine tagged aurora B protein).
For the large scale expression of aurora B kinase activity, Sf21 insect cells were grown at 28° C. in TC100 medium supplemented with 10% foetal calf serum (Viralex) and 0.2% F68 Pluronic (Sigma) on a Wheaton roller rig at 3 r.p.m. When the cell density reached 1.2×10^6 cells ml^−1 they were infected with plaque-pure aurora B recombinant virus at a multiplicity of infection of 1 and harvested 48 hours later. All subsequent purification steps were performed at 4° C. Frozen insect cell pellets containing a total of 2.0×10^8 cells were thawed and diluted with lysis buffer (50 mM HEPES (N-[2-hydroxyethyl]piperazine-N′-[2-ethanesulphonic acid]) pH7.5 at 4° C., 1 mM Na3VO4, 1 mM PMSF (phenylmethylsulphonyl fluoride), 1 mM dithiothreitol, 1 μg/ml aprotinin, 1 μg/ml pepstatin, 1 μg/ml leupeptin), using 1.0 ml per 2×10^7 cells. Lysis was achieved using a sonication homogeniser, following which the lysate was centrifuged at 41,000 g for 35 minutes. Aspirated supernatant was pumped onto a 5 mm diameter chromatography column containing 1.0 ml CM sepharose Fast Flow (Amersham Pharmacia Biotech) which had been equilibrated in lysis buffer. A baseline level of UV absorbance for the eluent was reached after washing the column with 12 ml of lysis buffer followed by 7 ml of wash buffer (50 mM HEPES pH7.4 at 4° C., 1 mM dithiothreitol). […]

[2] = test system: drug-resistant MCF7-ADR human breast tumour cells; experiment: In vitro drug-resistant cell phenotype and substrate phosphorylation assay (phosphohistone H3 levels); assay type: cell-based; conditions: NCI/ADR-RES, 24 hours of treatment, read-out: IC50 (inhibition of phosphohistone H3 levels)
Protocol: (d) In Vitro Drug-Resistant Cell Phenotype and Substrate Phosphorylation Assay.
This assay is used to determine the cellular effects of compounds on drug-resistant MCF7-ADR human breast tumour cells in vitro.
Compounds typically cause inhibition of levels of phosphohistoneH3 and an increase in the nuclear area of treated cells.
0.8×10^4 MCF7-ADR cells per well were plated in 100 μl DMEM media (containing 10% FCS (foetal calf serum) and 1% glutamine) in costar 96 well plates and left overnight at 37° C. and 5% CO2 to adhere.
All other procedures are identical to those for the above assay using SW620 cells.
The compounds of the invention generally have EC50 values for inhibition of phosphohistone H3 levels of 0.5 nM to 0.1 μM.

| IC50 [1] [nM] | IC50 (aurora B-INCENP enzyme) [nM] | IC50 [2] [nM] | Compound |
| --- | --- | --- | --- |
| 5.5 | 0.5 | 17 | CCOc1cc(OC[C@H]2CCCN2C)c2c(Nc3cnn(CC(=O)Nc4cccc(F)c4F)c3)ncnc2c1 [Compound 1, N-(2,3-difluorophenyl)-2-{4-[(7-ethoxy-5-{[(2R)-1-methylpyrrolidin-2-yl]methoxy}quinazolin-4-yl)amino]-1H-pyrazol-1-yl}acetamide] |
| 2 | 0.5 | 20 | CCOc1cc(OC[C@H]2CCCN2)c2c(Nc3cnn(CC(=O)Nc4cccc(F)c4F)c3)ncnc2c1 [Compound 2, N-(2,3-difluorophenyl)-2-[4-({7-ethoxy-5-[(2R)-pyrrolidin-2-ylmethoxy]quinazolin-4-yl}amino)-1H-pyrazol-1-yl]acetamide] |
| 2 | 0.1 | 4 | CCOc1cc(OC[C@H]2COCCN2)c2c(Nc3cnn(CC(=O)Nc4cccc(F)c4F)c3)ncnc2c1 [Compound 3, N-(2,3-difluorophenyl)-2-[4-({7-ethoxy-5-[(3R)-morpholin-3-ylmethoxy]quinazolin-4-yl}amino)-1H-pyrazol-1-yl]acetamide] |
